The subject of test [1] is SCN (inbred colony OP50, able to overcome PI 88788 resistance). Briefly: SCN cyst count on soybean plants grown from treated seed, pot test in germination chamber. Particulars: for reduction of SCN populations: nontransgenic Jack plants, cysts counted two months after planting; for percent reduction of average number of cysts compared to Jack: base (color/coating) treatment only, trait effect. Format: in vivo. The protocol: (§1) Two tests were planted with Jack (an SCN resistant soybean variety with PI 88788 resistance) and two genetically modified Jack varieties (AXN2 and AXMI031) known to produce a nematicidal protein. The seed were treated with a color/coating base or the same base plus one of two different rates of fluopyram (experiment 1 used 0.075 mg fluopyram/seed and experiment 2 used 0.15 mg fluopyram/seed). The SCN used to inoculate both tests were collected from an inbred colony (OP50) with the ability to overcome PI 88788 resistance.
(§2) Tests were conducted as non-randomized blocks with a minimum of 10 replicates. Seed were planted in individual 4″ clay pots with coarse sand and inoculated with approximately 20,000 OP50 juveniles in ten equal inoculations beginning at planting and again approximately every third day. Plants were maintained in a germination chamber. Blocks were rotated approximately every third day to minimize potential influence of environmental variance. Two months after planting, plants were harvested and cysts were collected and counted to evaluate the efficacy of the nematicide and traits, both individually and in combination with each other.

The test system of test [2] is Jack soybean plants (nontransgenic, AXN2, AXMI031). Description: Plant height of soybean plants in the SCN pot test. Format: in vivo. The protocol:
as §1, §2

The values that follow come from patent US8865622B2, “Use of active ingredients for controlling nematodes in nematode-resistant crops” (priority 2010, dated 2014).

As for `O=C(NCCc1ncc(C(F)(F)F)cc1Cl)c1ccccc1C(F)(F)F` [fluopyram, N-{2-[3-chloro-5-(trifluoromethyl)-2-pridinyl]ethyl}-2-(trifluoromethyl)benzamide], the “reduction of SCN populations” value in test [1] (first experiment, 0.075 mg fluopyram/seed) was determined as 26%; in test [1] (second experiment, 0.15 mg fluopyram/seed) it was 43%. For the same molecule, the “approximate reduction (SCN) provided by fluopyram” value is given as roughly 40% in test [1] (high rate (0.15 mg/seed), transgenic Axmi031 plants); roughly 40% in test [1] (high rate (0.15 mg/seed), transgenic Axn2 plants); roughly 20% in test [1] (low rate (0.075 mg/seed), transgenic Axmi031 plants); roughly 20% in test [1] (low rate (0.075 mg/seed), transgenic Axn2 plants). Moreover, the “effect on average plant height” value in test [2] (both genetically modified varieties (Axn2, Axmi031), both experiments (0.075 and 0.15 mg/seed)) is given as “increased average plant height”; in test [2] (nontransgenic control Jack plants, both experiments), “not having an effect”.

B1: AXMI031: genetically modified Jack soybean variety known to produce a nematicidal protein (gene axmi031, Table 1) (protein, listed as Bacillus thuringiensis)
chain: MNMNNTKLNARALPSFIDYFNGIYGFATGIKDIMNMIFKTDTGGDLTLDEILKNQQLLNEISGKLDGVNGSLNDLIAQGNLNTELSKEILKIANEQNQVLNDVNNKLDAINTMLNIYLPKITSMLSDVMKQNYALSLQIEYLSRQLQEISDKLDVINLNVLINSTLTEITPSYQRIKYVNEKFDKLTFATESTLRAKQGIFNEDSFDNNTLENLTDLAELAKSITKNDVDSFEFYLHTFHDVLIGNNLFGRSALKTASELITKDEIKTSGSEIGKVYSFLIVLTSLQAKAFLTLTTCRKLLGLSDIDYTSIMNEHLNNEKNEFRDNILPALSNKFSNPSYAKTIGSDNYAKVILESEPGYALVGFEIINDPIPVLKAYKAKLKQNYQVDNQSLSEIVYLDIDKLFCPENSEQKYYTKNLTFPDGYVITKITFEKKLNNLIYEATANFYDPSTGDIDLNKKQVESTFPQTDYITMDIGDDDGIYMPLGVISETFLTPINSFGLEVDAKSKTLTLKCKSYLREYLLESDLKNKETGLIAPPNVFISNVVKNWDIEEDSLEPWVANNKNAYVDNTGGIERSKALFTQGDGEFSQFIGDKLKPNTDYIIQYTVKGKPAIYLKNKSTGYITYEDTNGNSEEFQTIAVKFTSETDLSQTHLVFKSQNGYEAWGDNFIILEAKLFETPESPELIKFNDWERFGTTYITGNELRIDHSRGGYFRQSLNIDSYSTYDLSFSFSGLWAKVIVKNSRGVVLFEKVKNNGSSYEDISESFTTASNKDGFFIELTAERTSSTFHSFRDISIKEKIE
Regarding B1, the “percent reduction of average number of cysts compared to Jack” value in test [1] (first experiment) came out at 92%; in test [1] (second experiment), 88%.

B2: AXN2: genetically modified Jack soybean variety known to produce a nematicidal protein (gene axn2, Table 1) (protein)
chain: MASAANAGQLGNLPGVTSMGMGYDVNGLYASPESLLGQPLFDFGGELDSIEIEGRSYTFPRSMHVHTYFHSDFKQDVSKEIEEYREKMSQHVGVSGRYKLFSASLSVDFTTTDQQLTEITYSSTREAHVLWYISLPGAATLRSMLRRDFRDDLNNPNMPAMELFKRYGPYYISEAAVGGRLDYSAASKTLKMDSSQSLSTTAEMSYKALVGEIKIEHGSEMEKQVNSFRSNSTIRLTATGGKPGMTDRILHGPDSQQAFSQWAESLLDYATLMDFSTESLQPIWALADKPERRVELEDAFPEFMKQSQQSIPKVDKVLLMDARPPMVKAGEDSGSGASEDLAVFNPSTSNGYKMVGQFGQRNHASVADGHAPIFKDLFDLGVLKAPVGWQRVWDDAGSGKSKDYACWRAIPPQGYRALGDVMMLATSGYNPPNLPDYVCVHQSLCADVQTLQNRVWWDKGTGARKDVSLWQPGAAGAVASSCFAGVPNYNNPPNSGDIERLRGSIACVKTSAIASM
modifications: AXMI-205(trun20)
For the molecule B2, the “percent reduction of average number of cysts compared to Jack” value was 20% in test [1] (first experiment) and 43% in test [1] (second experiment).
